As usually defined, the melting point is the temperature of the solid-liquid transition.

The results in this text go back to article PMC9694146, “Novel [1,2,4]triazolo[3,4-b][1,3,4]thiadiazine and [1,2,4]triazolo[3,4-b][1,3,4]thiadiazepine Derivatives: Synthesis, Anti-Viral In Vitro Study and Target Validation Activity” (Molecules, 2022).

Test system in one data set: not given
Assay: not given
Conditions: not given
Take `CCCc1nnc2n1NCC=C(c1ccccc1)S2`: the melting point was 103 to 104 °C.

`CCCc1nnc2n1N=CC=C(c1ccccc1)S2`: the melting point fell in the range of 88 to 89 °C.

Test system in the next data set: not listed separately
The experiment in a line: Cytotoxicity, methyltetrazolium (MTT) assay on MDCK cell monolayer. The note with it: dog; MDCK cells, 72 h, MTT; read-out: CC50, cytotoxic concentration; the concentration resulting in 50% death of cells. In kind it is cell-based. On the procedure:
(§1) The cytotoxic properties of the compounds were investigated in a separate series of experiments. A series of threefold dilutions (300–3.7 µg/mL) were prepared from the test compounds, after which they were added to the wells of plates with a monolayer of MDCK cells (ATCC CCL-34). […] The plates with cells were incubated for 2 h. The precipitate was dissolved in DMSO (0.1 mL per well). The optical density in the wells was measured on a Thermo Multiskan FC plate photometer (Thermo Fisher Scientific, USA) at a wavelength of 540 nm. Based on the obtained data, CC50 values (the concentration of the compound, leading to a decrease in optical density by half, compared to wells without the addition of compounds) were calculated.
In the case of `Sc1nncn1N=CC#Cc1ccccc1` [Compound 1a, 4-((3-phenylprop-2-yn-1-ylidene)amino)-4H-1,2,4-triazole-3-thiol], the CC50 at 72 h stood at 134 ± 11 µM.

With `Cc1nnc(S)n1N=CC#Cc1ccccc1` [Compound 1b, 5-methyl-4-((3-phenylprop-2-yn-1-ylidene)amino)-4H-1,2,4-triazole-3-thiol], the CC50 at 72 h was found to be 126 ± 11.3 µM.

`CCc1nnc(S)n1N=CC#Cc1ccccc1` [Compound 1c, 5-ethyl-4-((3-phenylprop-2-yn-1-ylidene)amino)-4H-1,2,4-triazole-3-thiol]: the CC50 at 72 h was determined as 119 ± 9.6 µM.

Consider `Sc1nncn1NCC#Cc1ccccc1` [Compound 2a, 4-((3-phenylprop-2-yn-1-yl)amino)-4H-1,2,4-triazole-3-thiol], for which the CC50 at 72 h is above 1300 µM.

Consider `Cc1nnc(S)n1NCC#Cc1ccccc1` [Compound 2b, 5-methyl-4-((3-phenylprop-2-yn-1-yl)amino)-4H-1,2,4-triazole-3-thiol], for which the CC50 at 72 h was above 1200 µM.

Consider `CCc1nnc(S)n1NCC#Cc1ccccc1` [Compound 2c, 5-ethyl-4-((3-phenylprop-2-yn-1-yl)amino)-4H-1,2,4-triazole-3-thiol], for which the CC50 at 72 h is 487 ± 22.5 µM.

For `CCCc1nnc(S)n1NCC#Cc1ccccc1` [Compound 2d, 5-propyl-4-((3-phenylprop-2-yn-1-yl)amino)-4H-1,2,4-triazole-3-thiol], the CC50 at 72 h came out at 138 ± 12 µM.

On to `C1=Nn2cnnc2S/C1=C\c1ccccc1` [Compound 6a, (Z)-7-benzylidene-7H-[1,2,4]triazolo[3,4-b][1,3,4]thiadiazine], for which the CC50 at 72 h was 578 ± 32.3 µM.

In the case of `Cc1nnc2n1N=C/C(=C/c1ccccc1)S2` [Compound 6b, (Z)-7-benzylidene-3-methyl-7H-[1,2,4]triazolo[3,4-b][1,3,4]thiadiazine], the CC50 at 72 h worked out at 433 ± 37.6 µM.

`CCc1nnc2n1N=C/C(=C/c1ccccc1)S2` [Compound 6c, (Z)-7-benzylidene-3-ethyl-7H-[1,2,4]triazolo[3,4-b][1,3,4]thiadiazine]: the CC50 at 72 h was found to be 979 ± 55.1 µM.

With `CCCc1nnc2n1N=C/C(=C/c1ccccc1)S2` [Compound 6d, (Z)-7-benzylidene-3-propyl-7H-[1,2,4]triazolo[3,4-b][1,3,4]thiadiazine], the CC50 at 72 h was above 1100 µM.

In the case of `C1=Nn2cnnc2SC(c2ccccc2)=C1` [Compound 7a, 8-phenyl-[1,2,4]triazolo[3,4-b][1,3,4]thiadiazepine], the CC50 at 72 h stood at 42.9 ± 3.2 µM.

Take `CCc1nnc2n1N=CC=C(c1ccccc1)S2` [Compound 7c, 3-ethyl-8-phenyl-[1,2,4]triazolo[3,4-b][1,3,4]thiadiazepine]: the CC50 at 72 h turned out to be 6.1 ± 0.3 µM.

As to `C(=C1\CNn2cnnc2S1)/c1ccccc1` [Compound 8a, (Z)-7-benzylidene-6,7-dihydro-5H-[1,2,4]triazolo[3,4-b][1,3,4]thiadiazine], the CC50 at 72 h was above 1300 µM.

On to `Cc1nnc2n1NC/C(=C/c1ccccc1)S2` [Compound 8b, (Z)-7-benzylidene-3-methyl-6,7-dihydro-5H-[1,2,4]triazolo[3,4-b][1,3,4]thiadiazine], for which the CC50 at 72 h is above 1200 µM.

`CCc1nnc2n1NC/C(=C/c1ccccc1)S2` [Compound 8c, (Z)-7-benzylidene-3-ethyl-6,7-dihydro-5H-[1,2,4]triazolo[3,4-b][1,3,4]thiadiazine]: the CC50 at 72 h was above 1100 µM.

Consider `CCCc1nnc2n1NC/C(=C/c1ccccc1)S2` [Compound 8d, (Z)-7-benzylidene-3-propyl-6,7-dihydro-5H-[1,2,4]triazolo[3,4-b][1,3,4]thiadiazine], for which the CC50 at 72 h is above 1100 µM.

For the compound `C1=C(c2ccccc2)Sc2nncn2NC1` [Compound 10a, 8-phenyl-5,6-dihydro-[1,2,4]triazolo[3,4-b][1,3,4]thiadiazepine], the CC50 at 72 h is above 1300 µM.

For the compound `Cc1nnc2n1NCC=C(c1ccccc1)S2` [Compound 10b, 3-methyl-8-phenyl-5,6-dihydro-[1,2,4]triazolo[3,4-b][1,3,4]thiadiazepine], the CC50 at 72 h was above 1100 µM.

In the case of `CCc1nnc2n1NCC=C(c1ccccc1)S2` [Compound 10c, 3-ethyl-8-phenyl-5,6-dihydro-[1,2,4]triazolo[3,4-b][1,3,4]thiadiazepine], the CC50 at 72 h amounted to 972 ± 66.4 µM.

Regarding `CCC(CC)O[C@@H]1C=C(C(=O)O)C[C@H](N)[C@H]1NC(C)=O` [Oseltamivir carboxylate, reference compound], the CC50 at 72 h is above 100 µM.

On to `CC(N)C12CC3CC(CC(C3)C1)C2` (centres unmarked) [Rimantadine, reference compound], for which the CC50 at 72 h is 312 ± 22.8 µM.

The next data set deals with MDCK cells (ATCC CCL-34). The description is as above. It is filed as cell-based. The note with it: 300 μg/mL, 1100–1300 μM. As to the method: as §1
Consider `CCCc1nnc2n1N=C/C(=C/c1ccccc1)S2` [Compound 6d, (Z)-7-benzylidene-3-propyl-7H-[1,2,4]triazolo[3,4-b][1,3,4]thiadiazine], for which the “cytotoxicity at the highest concentration used” value is “did not demonstrate cytotoxicity”.

Staying with this data set, now noted: 72 h, MTT.
With `CCc1nnc2n1N=CC=C(c1ccccc1)S2` [Compound 7c, 3-ethyl-8-phenyl-[1,2,4]triazolo[3,4-b][1,3,4]thiadiazepine], the “CC50, cytotoxic concentration; the concentration resulting in 50% death of cells” value was “one-digit micromoles”.
